PubChem BioAssay AID248 (DTP/NCI, 2004)
Where “and” joins values, the source holds several entries; their conditions need not be identical. Equal entries are not always repeated. Inconclusive results and toxic doses are left out. Rule as the data show it: active = T/C of 150% or more; inactive = T/C below 125%.

System: L1210 leukemia ip in BDF1 mice, survival T/C
Experiment: NCI In Vivo Anticancer Drug Screen. Data for tumor model L1210 Leukemia (intraperitoneal) in B6D2F1 (BDF1) mice
Settings: endpoint: mean survival time, higher = longer survival
Procedure, shortened: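 Survival endpoint. Drug-treated group vs vehicle group, expressed as T divided by C. Tumor passaged by transplantation.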

[1] = dose: 3.12 mg/kg/injection, schedule: Q04DX003 (ip), vehicle: saline
[2] = dose: 100.0 mg/kg/injection, schedule: Q01DX001 (ip), vehicle: carboxymethylcellulose (CMC)
[3] = dose: 100.0 mg/kg/injection, schedule: Q01DX009 (ip), vehicle: Klucel (hydroxypropylcellulose) (HPC)
[4] = dose: 100.0 mg/kg/injection, schedule: Q04DX003 (ip), vehicle: Klucel (hydroxypropylcellulose) (HPC)
[5] = dose: 200.0 mg/kg/injection, schedule: Q01DX009 (ip), vehicle: Klucel (hydroxypropylcellulose) (HPC)
[6] = dose: 200.0 mg/kg/injection, schedule: Q04DX003 (ip), vehicle: Klucel (hydroxypropylcellulose) (HPC)
[7] = dose: 400.0 mg/kg/injection, schedule: Q01DX009 (ip), vehicle: Klucel (hydroxypropylcellulose) (HPC)
[8] = dose: 400.0 mg/kg/injection, schedule: Q04DX003 (ip), vehicle: Klucel (hydroxypropylcellulose) (HPC)
[9] = dose: 100.0 mg/kg/injection, schedule: Q04DX002 (ip), vehicle: saline
[10] = dose: 200.0 mg/kg/injection, schedule: Q04DX002 (ip), vehicle: saline
[11] = dose: 400.0 mg/kg/injection, schedule: Q04DX002 (ip), vehicle: saline
[12] = dose: 100.0 mg/kg/injection, schedule: Q04DX003 (ip), vehicle: saline with Tween-80
[13] = dose: 200.0 mg/kg/injection, schedule: Q04DX003 (ip), vehicle: saline with Tween-80
[14] = dose: 400.0 mg/kg/injection, schedule: Q04DX003 (ip), vehicle: saline with Tween-80
[15] = dose: 100.0 mg/kg/injection, schedule: Q01DX001 (ip), vehicle: saline
[16] = dose: 200.0 mg/kg/injection, schedule: Q01DX001 (ip), vehicle: saline
[17] = dose: 400.0 mg/kg/injection, schedule: Q01DX001 (ip), vehicle: saline
[18] = dose: 100.0 mg/kg/injection, schedule: Q04DX003 (ip), vehicle: saline
[19] = dose: 200.0 mg/kg/injection, schedule: Q04DX003 (ip), vehicle: saline

Measured: T/C

CCOP(=O)(NCCCOC)OCC
inactive: dose: 0.78 mg/kg/injection, schedule: Q01DX009 (ip), vehicle: acetone 96 % of control | dose: 1.56 mg/kg/injection, schedule: Q01DX009 (ip), vehicle: acetone 100 % of control | dose: 3.12 mg/kg/injection, schedule: Q01DX009 (ip), vehicle: acetone 91 % of control | [1] 93 % of control | dose: 4.6 mg/kg/injection, schedule: Q01DX009 (ip), vehicle: saline 95 % of control | dose: 7.0 mg/kg/injection, schedule: Q01DX009 (ip), vehicle: saline 98 % of control | dose: 10.5 mg/kg/injection, schedule: Q01DX009 (ip), vehicle: saline 95 % of control | dose: 12.5 mg/kg/injection, schedule: Q01DX001 (ip), vehicle: acetone 94 % of control | dose: 15.0 mg/kg/injection, schedule: Q01DX009 (ip), vehicle: acetone 94 % of control | dose: 23.0 mg/kg/injection, schedule: Q01DX009 (ip), vehicle: acetone 94 % of control

Cc1cc(OC(C)C(=O)O)c(Cl)cc1Cl (centres undefined)
inactive: dose: 50.0 mg/kg/injection, schedule: Q01DX001 (ip), vehicle: carboxymethylcellulose (CMC) 103 % of control | [2] 103 % of control

CCOC(=O)C(=O)Cc1cnc2ccccc2n1
inactive: [3] 113 % of control | [4] 97 % of control | [5] 94 % of control | [6] 96 % of control | [7] 92 % of control | [8] 100 % of control

COC(=O)C1=NNC(c2ccc(OC)cc2)C1 (centres undefined)
inactive: dose: 100.0 mg/kg/injection, schedule: Q01DX001 (ip), vehicle: steriod suspending solution 115 % of control | dose: 200.0 mg/kg/injection, schedule: Q01DX001 (ip), vehicle: steriod suspending solution 97 % of control | dose: 400.0 mg/kg/injection, schedule: Q01DX001 (ip), vehicle: steriod suspending solution 103 % of control

CCN(CC#CCOc1ccc(Br)cc1)c1ccccc1
inactive: [9] 105 % of control | [10] 101 % of control | [11] 99 % of control

Cc1nc(Cl)cc(=O)[nH]1
inactive: [3] 90 % of control | [4] 101 % of control | [5] 97 % of control | [6] 90 % of control | [7] 90 % of control | [8] 91 % of control

CCNC(=O)NCc1cc(C)ccc1C
inactive: dose: 100.0 mg/kg/injection, schedule: Q04DX002 (ip), vehicle: Klucel (hydroxypropylcellulose) (HPC) 111 % of control | dose: 200.0 mg/kg/injection, schedule: Q04DX002 (ip), vehicle: Klucel (hydroxypropylcellulose) (HPC) 108 % of control | dose: 400.0 mg/kg/injection, schedule: Q04DX002 (ip), vehicle: Klucel (hydroxypropylcellulose) (HPC) 108 % of control

CC(C)(COCOCC(C)(C)[N+](=O)[O-])[N+](=O)[O-]
inactive: [12] 100 % of control | [13] 103 % of control | [14] 100 % of control

CCOC(=O)c1ccc(NC(=O)Sc2cccc(C)c2)cc1
inactive: [4] 93 % of control | [6] 97 % of control | [8] 96 % of control

C1CCC2C(C1)CC1CCCCC12 (centres undefined)
inactive: dose: 100.0 mg/kg/injection, schedule: Q04DX002 (ip), vehicle: saline with Tween-80 101 % of control | dose: 200.0 mg/kg/injection, schedule: Q04DX002 (ip), vehicle: saline with Tween-80 105 % of control | dose: 400.0 mg/kg/injection, schedule: Q04DX002 (ip), vehicle: saline with Tween-80 101 % of control

CCOC(=O)CCC(N)C(=O)O (centres undefined)
inactive: [9] 110 % of control | [10] 106 % of control | [11] 102 % of control

OCCC1CNCCN1.[Cl][Pd]([Cl])([Cl])[Cl] (centres undefined)
inactive: dose: 100.0 mg/kg/injection, schedule: Q01DX001 (ip), vehicle: DMSO 98 % of control | dose: 200.0 mg/kg/injection, schedule: Q01DX001 (ip), vehicle: DMSO 91 % of control

CC1(c2ccccc2)CC1(Br)Br (centres undefined)
inactive: [9] 95 % of control | [10] 95 % of control | [11] 100 % of control

O=C(NCCCCCCNC(=O)N(O)C12CC3CC(CC(C3)C1)C2)N(O)C12CC3CC(CC(C3)C1)C2
inactive: dose: 100.0 mg/kg/injection, schedule: Q01DX001 (ip), vehicle: Klucel (hydroxypropylcellulose) (HPC) 95 % of control | dose: 200.0 mg/kg/injection, schedule: Q01DX001 (ip), vehicle: Klucel (hydroxypropylcellulose) (HPC) 90 % of control | dose: 400.0 mg/kg/injection, schedule: Q01DX001 (ip), vehicle: Klucel (hydroxypropylcellulose) (HPC) 90 % of control

O=C(O)c1c(O)c2cc(Br)ccc2oc1=O
inactive: [15] 98 % of control | [16] 98 % of control | [17] 102 % of control

CCCn1c(C)nc2c1C(=O)c1ccccc1C2=O
inactive: [15] 94 % of control | [18] 86 % of control | [16] 98 % of control | [19] 88 % of control | [17] 103 % of control | dose: 400.0 mg/kg/injection, schedule: Q04DX003 (ip), vehicle: saline 91 % of control

COc1ccccc1NC(=O)Nc1cccc(C)c1C
inactive: [3] 96 % of control | [4] 93 % of control | [5] 92 % of control | [6] 93 % of control | [7] 100 % of control | [8] 92 % of control

Cl[Si](Cc1ccccc1)(Cc1ccccc1)Cc1ccccc1
inactive: [15] 93 % of control | [16] 88 % of control | [17] 95 % of control

O=[N+]([O-])c1cc(S(=O)(=O)c2ccccc2)ccc1S(=O)(=O)c1ccccc1
inactive: dose: 50.0 mg/kg/injection, schedule: Q01DX005 (ip), vehicle: saline with Tween-80 99 % of control | dose: 100.0 mg/kg/injection, schedule: Q01DX005 (ip), vehicle: saline with Tween-80 94 % of control | dose: 400.0 mg/kg/injection, schedule: Q01DX005 (ip), vehicle: saline with Tween-80 89 % of control

CCCCCCCCCCCCCCCCOc1ccc(C=Nc2ccc(C)cc2)cc1
inactive: [4] 103 % of control | [6] 97 % of control | [8] 104 % of control

COc1cccc(C)c1NC(=O)NCCCl
inactive: [4] 100 % of control | [6] 94 % of control | [8] 94 % of control

CCc1ccccc1NC(=O)Sc1ccccc1O
inactive: dose: 6.25 mg/kg/injection, schedule: Q01DX009 (ip), vehicle: saline with Tween-80 105 % of control | dose: 12.5 mg/kg/injection, schedule: Q01DX009 (ip), vehicle: saline with Tween-80 105 % of control | dose: 25.0 mg/kg/injection, schedule: Q01DX009 (ip), vehicle: saline with Tween-80 93 % of control and 102 % of control

CC(CO)NC(=O)C1C=C2c3cccc4[nH]cc(c34)CC2N(C)C1 (centres undefined)
inactive: [1] 114 % of control | dose: 6.25 mg/kg/injection, schedule: Q04DX003 (ip), vehicle: saline 114 % of control | dose: 12.5 mg/kg/injection, schedule: Q01DX009 (ip), vehicle: saline 109 % of control | dose: 12.5 mg/kg/injection, schedule: Q04DX003 (ip), vehicle: saline 114 % of control | dose: 25.0 mg/kg/injection, schedule: Q01DX009 (ip), vehicle: saline 95 % of control | dose: 25.0 mg/kg/injection, schedule: Q04DX003 (ip), vehicle: saline 101 % of control | dose: 50.0 mg/kg/injection, schedule: Q01DX009 (ip), vehicle: saline 96 % of control | dose: 50.0 mg/kg/injection, schedule: Q04DX003 (ip), vehicle: saline 103 % of control | dose: 100.0 mg/kg/injection, schedule: Q01DX009 (ip), vehicle: saline 95 % of control | [18] 100 % of control | dose: 200.0 mg/kg/injection, schedule: Q01DX009 (ip), vehicle: saline 96 % of control | [19] 102 % of control

O=[N+]([O-])c1cncc([N+](=O)[O-])c1NCc1ccccc1
inactive: [12] 103 % of control | [13] 93 % of control | [14] 104 % of control

O=C1CC2CCCCC2c2ccccc21 (centres undefined)
inactive: dose: 12.5 mg/kg/injection, schedule: Q01DX001 (ip), vehicle: saline 114 % of control | dose: 25.0 mg/kg/injection, schedule: Q01DX001 (ip), vehicle: saline 102 % of control | dose: 50.0 mg/kg/injection, schedule: Q01DX001 (ip), vehicle: saline 100 % of control

O=C1c2ccccc2-c2cccc(Cl)c21
inactive: [2] 101 % of control | dose: 200.0 mg/kg/injection, schedule: Q01DX001 (ip), vehicle: carboxymethylcellulose (CMC) 93 % of control | dose: 400.0 mg/kg/injection, schedule: Q01DX001 (ip), vehicle: carboxymethylcellulose (CMC) 104 % of control
